Source: US20230014151A1, “COMBINATION ANTIVIRAL THERAPY FOR MEASLES” (The Trustees of Columbia University in the City of New York, priority 2019, published 2023)
Read-outs that look alike come from different tables or passages of the source. Square brackets hold non-standard residues; d marks the D form. Peptide text beside a SMILES is read from it. * marks the point of attachment. X4 = CC(C)CCC[C@@H](C)[C@H]1CC[C@H]2[C@@H]3CC=C4C[C@@H](OC(=O)CCOCCOCCOCCOCCNC(=O)C*)CC[C@]4(C)[C@H]3CC[C@]12C; X3 = CC(C)CCC[C@@H](C)[C@H]1CC[C@H]2[C@@H]3CC=C4C[C@@H](OC(=O)C*)CC[C@]4(C)[C@H]3CC[C@]12C; Cbz = O=C(OCc1ccccc1)*

Target: viral glycoproteins (H and F); Nectin-4 (Measles virus, UniProt Q786F3)
Sequence (Q786F3 24-112): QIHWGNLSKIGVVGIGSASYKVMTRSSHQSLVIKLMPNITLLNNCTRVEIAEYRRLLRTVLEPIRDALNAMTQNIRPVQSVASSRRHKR
Experiment: beta-galactosidase complementation-based fusion assay, Nectin-4 target cells
[1] = IC50, Table 2 (salient peptides), Nectin-4 target cells
[2] = Nectin4 IC50, Table 3 (extended version)

SMILES | IC90 | IC50 [1] | IC50 [2] | IC90 (read-out: Nectin4 IC90) | IC50 | IC50 (read-out: Nectin4 IC50, Table 3 (extended version))
CC[C@H](C)[C@H](NC(=O)[C@H](C)NC(=O)[C@H](CC(N)=O)NC(=O)CNC(=O)[C@H](CC(C)C)NC(=O)[C@H](CC(N)=O)NC(=O)[C@@H](NC(=O)CNC(=O)[C@@H](NC(=O)[C@H](CC(=O)O)NC(=O)[C@H](CC(C)C)NC(=O)[C@H](CCCNC(=N)N)NC(=O)[C@H](CCC(=O)O)NC(=O)[C@H](CC(C)C)NC(=O)[C@H](CO)NC(=O)[C@@H](NC(=O)[C@@H]1CCCN1C(=O)[C@@H]1CCCN1C(=O)CNC(=O)[C@H](CO)NC(=O)CNC(=O)[C@H](CO)NC(=O)CNC(=O)CNC(=O)[C@H](Cc1ccccc1)NC(=O)[C@@H](Cc1ccccc1)NC(=O)OCc1ccccc1)[C@@H](C)CC)C(C)C)[C@@H](C)O)C(=O)N[C@@H](C)C(=O)N[C@@H](CCCCN)C(=O)N[C@@H](CC(C)C)C(=O)N[C@@H](CCC(=O)O)C(=O)N[C@@H](CC(=O)O)C(=O)N[C@@H](C)C(=O)N[C@@H](CCCCN)C(=O)N[C@@H](CCC(=O)O)C(=O)N[C@@H](CC(C)C)C(=O)N[C@@H](CC(C)C)C(=O)N[C@@H](CCC(=O)O)C(=O)N[C@@H](CO)C(=O)N[C@@H](CO)C(=O)N[C@@H](CC(=O)O)C(=O)N[C@@H](CCC(N)=O)C(=O)N[C@H](C(=O)N[C@@H](CC(C)C)C(=O)N[C@@H](CCCNC(=N)N)C(=O)NCC(=O)N[C@@H](CO)C(=O)NCC(=O)N[C@@H](CO)C(=O)NCC(=O)N[C@@H](CS)C(=O)O)[C@@H](C)CC [FIP-HRC450-485] | > 10 µM | 4.24 ± 0.812 µM | 4.24 ± 0.812 µM | > 10 µM | – | –
CC(C)CCC[C@@H](C)[C@H]1CC[C@H]2[C@@H]3CC=C4C[C@@H](OC(=O)CSC[C@H](NC(=O)CNC(=O)[C@H](CO)NC(=O)CNC(=O)[C@H](CO)NC(=O)CNC(=O)CNC(=O)[C@H](Cc5ccccc5)NC(=O)[C@@H](Cc5ccccc5)NC(=O)OCc5ccccc5)C(=O)O)CC[C@]4(C)[C@H]3CC[C@]12C [FIP-chol] (Cbz-[dF]FGGSGSGC(X3)-OH) | 7.615 ± 0.013 µM | 4 ± 1.08 µM | > 10 µM | > 10 µM | – | –
CC[C@H](C)[C@H](NC(=O)[C@H](C)NC(=O)[C@H](CC(N)=O)NC(=O)CNC(=O)[C@H](CC(C)C)NC(=O)[C@H](CC(N)=O)NC(=O)[C@@H](NC(=O)CNC(=O)[C@@H](NC(=O)[C@H](CC(=O)O)NC(=O)[C@H](CC(C)C)NC(=O)[C@H](CCCNC(=N)N)NC(=O)[C@H](CCC(=O)O)NC(=O)[C@H](CC(C)C)NC(=O)[C@H](CO)NC(=O)[C@@H](NC(=O)[C@@H]1CCCN1C(=O)[C@@H]1CCCN1C(C)=O)[C@@H](C)CC)C(C)C)[C@@H](C)O)C(=O)N[C@@H](C)C(=O)N[C@@H](CCCCN)C(=O)N[C@@H](CC(C)C)C(=O)N[C@@H](CCC(=O)O)C(=O)N[C@@H](CC(=O)O)C(=O)N[C@@H](C)C(=O)N[C@@H](CCCCN)C(=O)N[C@@H](CCC(=O)O)C(=O)N[C@@H](CC(C)C)C(=O)N[C@@H](CC(C)C)C(=O)N[C@@H](CCC(=O)O)C(=O)N[C@@H](CO)C(=O)N[C@@H](CO)C(=O)N[C@@H](CC(=O)O)C(=O)N[C@@H](CCC(N)=O)C(=O)N[C@H](C(=O)N[C@@H](CC(C)C)C(=O)N[C@@H](CCCNC(=N)N)C(=O)NCC(=O)N[C@@H](CO)C(=O)NCC(=O)N[C@@H](CO)C(=O)NCC(=O)N[C@@H](CSC1CC(=O)N(CCC(=O)NCCOCCOCCOCCOCCOCCOCCOCCOCCOCCOCCOCCNC(=O)CCN2C(=O)CC(SC[C@H](NC(=O)CNC(=O)[C@H](CO)NC(=O)CNC(=O)[C@H](CO)NC(=O)CNC(=O)[C@H](CCCNC(=N)N)NC(=O)[C@H](CC(C)C)NC(=O)[C@@H](NC(=O)[C@H](CCC(N)=O)NC(=O)[C@H](CC(=O)O)NC(=O)[C@H](CO)NC(=O)[C@H](CO)NC(=O)[C@H](CCC(=O)O)NC(=O)[C@H](CC(C)C)NC(=O)[C@H](CC(C)C)NC(=O)[C@H](CCC(=O)O)NC(=O)[C@H](CCCCN)NC(=O)[C@H](C)NC(=O)[C@H](CC(=O)O)NC(=O)[C@H](CCC(=O)O)NC(=O)[C@H](CC(C)C)NC(=O)[C@H](CCCCN)NC(=O)[C@H](C)NC(=O)[C@@H](NC(=O)[C@H](C)NC(=O)[C@H](CC(N)=O)NC(=O)CNC(=O)[C@H](CC(C)C)NC(=O)[C@H](CC(N)=O)NC(=O)[C@@H](NC(=O)CNC(=O)[C@@H](NC(=O)[C@H](CC(=O)O)NC(=O)[C@H](CC(C)C)NC(=O)[C@H](CCCNC(=N)N)NC(=O)[C@H](CCC(=O)O)NC(=O)[C@H](CC(C)C)NC(=O)[C@H](CO)NC(=O)[C@@H](NC(=O)[C@@H]3CCCN3C(=O)[C@@H]3CCCN3C(C)=O)[C@@H](C)CC)C(C)C)[C@@H](C)O)[C@@H](C)CC)[C@@H](C)CC)C(=O)O)C2=O)C1=O)C(=O)O)[C@@H](C)CC (stereo partly drawn) [[HRC450-485]2-peg11] | > 10 µM | – | – | > 10 µM | > 4 µM | > 4 µM
CC(C)CCC[C@@H](C)[C@H]1CC[C@H]2[C@@H]3CC=C4C[C@@H](OC(=O)CCOCCOCCOCCOCCNC(=O)CSC[C@H](NC(=O)CNC(=O)[C@H](CO)NC(=O)CNC(=O)[C@H](CO)NC(=O)CNC(=O)CNC(=O)[C@H](Cc5ccccc5)NC(=O)[C@@H](Cc5ccccc5)NC(=O)OCc5ccccc5)C(=O)O)CC[C@]4(C)[C@H]3CC[C@]12C [FIP-peg4-chol] (Cbz-[dF]FGGSGSGC(X4)-OH) | 7.615 ± 0.013 µM | – | – | 7.615 ± 0.013 µM | – | –
CC[C@H](C)[C@H](NC(=O)[C@H](C)NC(=O)[C@H](CC(N)=O)NC(=O)CNC(=O)[C@H](CC(C)C)NC(=O)[C@H](CC(N)=O)NC(=O)[C@@H](NC(=O)CNC(=O)[C@@H](NC(=O)[C@H](CC(=O)O)NC(=O)[C@H](CC(C)C)NC(=O)[C@H](CCCNC(=N)N)NC(=O)[C@H](CCC(=O)O)NC(=O)[C@H](CC(C)C)NC(=O)[C@H](CO)NC(=O)[C@@H](NC(=O)[C@@H]1CCCN1C(=O)[C@@H]1CCCN1C(C)=O)[C@@H](C)CC)C(C)C)[C@@H](C)O)C(=O)N[C@@H](C)C(=O)N[C@@H](CCCCN)C(=O)N[C@@H](CC(C)C)C(=O)N[C@@H](CCC(=O)O)C(=O)N[C@@H](CC(=O)O)C(=O)N[C@@H](C)C(=O)N[C@@H](CCCCN)C(=O)N[C@@H](CCC(=O)O)C(=O)N[C@@H](CC(C)C)C(=O)N[C@@H](CC(C)C)C(=O)N[C@@H](CCC(=O)O)C(=O)N[C@@H](CO)C(=O)N[C@@H](CO)C(=O)N[C@@H](CC(=O)O)C(=O)N[C@@H](CCC(N)=O)C(=O)N[C@H](C(=O)N[C@@H](CC(C)C)C(=O)N[C@@H](CCCNC(=N)N)C(=O)NCC(=O)N[C@@H](CO)C(=O)NCC(=O)N[C@@H](CO)C(=O)NCC(=O)N[C@@H](CS)C(=O)O)[C@@H](C)CC [HRC450-485] | > 10 µM | > 10 µM | > 10 µM | > 10 µM | – | –
